In patent US5675003A, “3-ammoniopropenyl cephalosporin compounds as antibacterial agents” (Korea Institute of Science and Technology, priority 1995, dated 1997):
In brackets after ≈: the same amount, converted by molar mass.

Experiments:
Assay in all cases: MIC, in vitro agar dilution method
Type in all cases: cell-based
E.c.5 = details: Escherichia coli, E.c.5 (strain not defined)
Protocol: (§1) The MICs of the new cephalosporins of the present invention against Gram-positive and Gram-negative bacteria were determined by an in vitro agar dilution method. For comparisons, the MIC values of ceftazidime are also listed.

Streptococcus faecium MD = details: Enterococcus faecium; S.f., Streptococcus faecium MD; agar dilution; read-out: MIC
Protocol: as §1
(§2) In vitro antimicrobial activity of the cephalosporins (l) (MIC:
S.f., Streptococcus faecium MD;

[1] = tested on: Pseudomonas eruginosa 1771; details: P.a.3, Pseudomonas eruginosa 1771
Protocol: as §1, §2
P.a.3, Pseudomonas eruginosa 1771;

[2] = tested on: Pseudomonas aeruginosa 1771 M; details: P.a.4, Pseudomonas aeruginosa 1771 M; agar dilution; read-out: MIC
Protocol: as §1, §2
P.a.4, Pseudomonas aeruginosa 1771 M;

Escherichia coli TEM = details: E.c.3, Escherichia coli TEM
Protocol: as §1, §2
E.c.3, Escherichia coli TEM;

[3] = tested on: Staphylococcus aureus 285; details: S.a.2, Staphylococcus aureus 285; agar dilution; read-out: MIC
Protocol: as §1, §2
E.c. TEM, S.a. 2, Staphylococcus aureus 285;

[4] = tested on: Klebsiella oxytoca 1082 E; details: K.o., Klebsiella oxytoca 1082 E; agar dilution; read-out: MIC
Protocol: as §1, §2
K.o., Klebsiella oxytoca 1082 E;

[5] = tested on: Staphlococcus aureus SG 511; details: S.a.1, Staphlococcus aureus SG 511; agar dilution; read-out: MIC
Protocol: as §1, §2
S.a.1, Staphlococcus aureus SG 511;

[6] = tested on: Staphylococcus aureus 503; details: S.a.3, Staphylococcus aureus 503; agar dilution; read-out: MIC
Protocol: as §1, §2
S.a.3, Staphylococcus aureus 503;

[7] = tested on: Enterobacter cloacae 1321 E; details: En.c.2, Enterobacter cloacae 1321 E; agar dilution; read-out: MIC
Protocol: as §1, §2
En.c.2, Enterobacter cloacae 1321 E.

[8] = tested on: Enterobacter cloacae P 99; details: Enterobacter cloacae, P99
Protocol: as §1, §2
En.c.1, Enterobacter cloacae P 99;

Escherichia coli O55 = details: E.c.1, Escherichia coli O55
Protocol: as §1, §2
E.c.1, Escherichia coli O55;

Escherichia coli 1507 E = details: E.c.4, Escherichia coli 1507 E
Protocol: as §1, §2
E.c.4, Escherichia coli 1507 E;

[9] = tested on: Klebsiella aerogenes 1552 E; details: K.a., Klebsiella aerogenes 1552 E; agar dilution; read-out: MIC
Protocol: as §1, §2
K.a., Klebsiella aerogenes 1552 E;

[10] = tested on: Streptococcus pyogenes 308 A; details: S.p.1, Streptococcus pyogenes 308 A; agar dilution; read-out: MIC
Protocol: as §1, §2
S.p.1, Streptococcus pyogenes 308 A;

[11] = tested on: Pseudomonas aeruginosa 9027; details: P.a.1, Pseudomonas aeruginosa 9027; agar dilution; read-out: MIC
Protocol: as §1, §2
P.a.1, Pseudomonas aeruginosa 9027;

[12] = tested on: Pseudomonas aeruginosa 1592 E; details: P.a.2, Pseudomonas aeruginosa 1592 E; agar dilution; read-out: MIC
Protocol: as §1, §2
P.a.2, Pseudomonas aeruginosa 1592 E;

Salmonella typhimurium = details: Salmonella enterica; S.t., Salmonella typhimurium; agar dilution; read-out: MIC
Protocol: as §1, §2
S.t., Salmonella typhimurium;

Escherichia coli DC0 = details: E.c.2, Escherichia coli DC0
Protocol: as §1, §2
E.c.2, Escherichia coli DC0;

[13] = tested on: Streptococcus pyogenes A 77; details: A77; S.p.2, Streptococcus pyogenes A 77; agar dilution; read-out: MIC
Protocol: as §1, §2
S.p.2, Streptococcus pyogenes A 77;

| Compound | MIC (E.c.5) [µg/mL] | MIC (Streptococcus faecium MD) [µg/mL] | MIC [1] [µg/mL] | MIC [2] [µg/mL] | MIC (Escherichia coli TEM) [µg/mL] | MIC [3] [µg/mL] | MIC [4] [µg/mL] | MIC [5] [µg/mL] | MIC [6] [µg/mL] | MIC [7] [µg/mL] | MIC [8] [µg/mL] | MIC (Escherichia coli O55) [µg/mL] | MIC (Escherichia coli 1507 E) [µg/mL] | MIC [9] [µg/mL] | MIC [10] [µg/mL] | MIC [11] [µg/mL] | MIC [12] [µg/mL] | MIC (Salmonella typhimurium) [µg/mL] | MIC (Escherichia coli DC0) [µg/mL] | MIC [13] [ng/mL] |
| --- | --- | --- | --- | --- | --- | --- | --- | --- | --- | --- | --- | --- | --- | --- | --- | --- | --- | --- | --- | --- |
| CO/N=C(\C(=O)N[C@@H]1C(=O)N2C(C(=O)[O-])=C(/C=C/C[N+]3(C)CC[C@H](O)[C@H](O)C3)CS[C@H]12)c1csc(N)n1 (relative stereo) [1-e, 7β-[2-(2-Aminothiazol-4-yl)-(Z)-2-methoxyiminoacetamido]-3-[(E)-3-(3,4-cis-dihydroxy-1-methyl-1-piperidinio)-1-propen-1-yl]-3-cephem-4-carboxylate] | 0.049 (≈ 0.0887 µM) | 50 (≈ 90.5 µM) | 1.56 (≈ 2.82 µM) | 0.2 (≈ 0.362 µM) | 0.025 (≈ 0.0452 µM) | 0.78 (≈ 1.41 µM) | 3.13 (≈ 5.66 µM) | 0.39 (≈ 0.706 µM) | 0.2 (≈ 0.362 µM) | 0.025 (≈ 0.0452 µM) | 6.25 (≈ 11.3 µM) | 0.025 (≈ 0.0452 µM) | 0.049 (≈ 0.0887 µM) | 0.025 (≈ 0.0452 µM) | 0.013 (≈ 0.0235 µM) | 6.25 (≈ 11.3 µM) | 3.13 (≈ 5.66 µM) | 0.025 (≈ 0.0452 µM) | 0.049 (≈ 0.0887 µM) | 13 (≈ 0.0235 µM) |
| CO/N=C(\C(=O)N[C@@H]1C(=O)N2C(C(=O)[O-])=C(/C=C/C[N+]3(C)CC[C@@H](O)[C@H](O)C3)CS[C@H]12)c1csc(N)n1 (relative stereo) [1-f, 7β-[2-(2-Aminothiazol-4-yl)-(Z)-2-methoxyiminoacetamido]-3-[(E)-3-(3,4-trans-dihydroxy-1-methyl-1-piperidinio)-1-propen-1-yl]-3-cephem-4-carboxylate] | 0.049 (≈ 0.0887 µM) | 50 (≈ 90.5 µM) | 0.78 (≈ 1.41 µM) | 0.098 (≈ 0.177 µM) | 0.025 (≈ 0.0452 µM) | 0.78 (≈ 1.41 µM) | 3.13 (≈ 5.66 µM) | 0.39 (≈ 0.706 µM) | 0.2 (≈ 0.362 µM) | 0.025 (≈ 0.0452 µM) | 12.5 (≈ 22.6 µM) | 0.025 (≈ 0.0452 µM) | 0.049 (≈ 0.0887 µM) | 0.025 (≈ 0.0452 µM) | 0.013 (≈ 0.0235 µM) | 3.13 (≈ 5.66 µM) | 1.56 (≈ 2.82 µM) | 0.025 (≈ 0.0452 µM) | 0.049 (≈ 0.0887 µM) | 13 (≈ 0.0235 µM) |
| CO/N=C(\C(=O)N[C@@H]1C(=O)N2C(C(=O)[O-])=C(/C=C/C[N+]3(C)C[C@@H](O)[C@@H](O)C3)CS[C@H]12)c1csc(N)n1 (stereo partly drawn) [1-a, 7β-[2-(2-Aminothiazol-4-yl)-(Z)-2-methoxyiminoacetamido]-3-[(E)-3-(meso-3,4-dihydroxy-1-methyl-1-pyrrolidinio)-1-propen-1-yl]-3-cephem-4-carboxylate] | 0.049 (≈ 0.091 µM) | 50 (≈ 92.8 µM) | 1.56 (≈ 2.9 µM) | 0.098 (≈ 0.182 µM) | 0.025 (≈ 0.0464 µM) | 0.78 (≈ 1.45 µM) | 3.13 (≈ 5.81 µM) | 0.39 (≈ 0.724 µM) | 0.2 (≈ 0.371 µM) | 0.013 (≈ 0.0241 µM) | 6.25 (≈ 11.6 µM) | 0.013 (≈ 0.0241 µM) | 0.049 (≈ 0.091 µM) | 0.025 (≈ 0.0464 µM) | 0.013 (≈ 0.0241 µM) | 3.13 (≈ 5.81 µM) | 3.13 (≈ 5.81 µM) | 0.013 (≈ 0.0241 µM) | 0.049 (≈ 0.091 µM) | 13 (≈ 0.0241 µM) |
| CO/N=C(\C(=O)N[C@@H]1C(=O)N2C(C(=O)[O-])=C(/C=C/C[N+]3(C)C[C@H](O)[C@@H](O)C3)CS[C@H]12)c1csc(N)n1 [1-b, 7β-[2-(2-Aminothiazol-4-yl)-(Z)-2-methoxyiminoacetamido]-3-[(E)-3-(3S,4S-dihydroxy-1-methyl-1-pyrrolidinio)-1-propen-1-yl]-3-cephem-4-carboxylate] | 0.049 (≈ 0.091 µM) | 50 (≈ 92.8 µM) | 1.56 (≈ 2.9 µM) | 0.098 (≈ 0.182 µM) | 0.025 (≈ 0.0464 µM) | 0.78 (≈ 1.45 µM) | 0.78 (≈ 1.45 µM) | 0.39 (≈ 0.724 µM) | 0.2 (≈ 0.371 µM) | 0.013 (≈ 0.0241 µM) | 3.13 (≈ 5.81 µM) | 0.025 (≈ 0.0464 µM) | 0.049 (≈ 0.091 µM) | 0.025 (≈ 0.0464 µM) | 0.013 (≈ 0.0241 µM) | 3.13 (≈ 5.81 µM) | 1.56 (≈ 2.9 µM) | 0.025 (≈ 0.0464 µM) | 0.049 (≈ 0.091 µM) | 7 (≈ 0.013 µM) |
| CO/N=C(\C(=O)N[C@@H]1C(=O)N2C(C(=O)[O-])=C(/C=C/C[N+]3(C)C[C@H](O)C[C@H]3CO)CS[C@H]12)c1csc(N)n1 (stereo partly drawn) [1-c, 7β-[2-(2-Aminothiazol-4-yl)-(Z)-2-methoxyiminoacetamido]-3-[(E)-3-(4R-hydroxy-2S-hydroxymethyl-1-methyl-1-pyrrolidinio)-1-propen-1-yl]-3-cephem-4-carboxylate] | 0.049 (≈ 0.0887 µM) | 50 (≈ 90.5 µM) | 1.56 (≈ 2.82 µM) | 0.2 (≈ 0.362 µM) | 0.025 (≈ 0.0452 µM) | 0.78 (≈ 1.41 µM) | 3.13 (≈ 5.66 µM) | 0.39 (≈ 0.706 µM) | 0.2 (≈ 0.362 µM) | 0.013 (≈ 0.0235 µM) | 3.13 (≈ 5.66 µM) | 0.013 (≈ 0.0235 µM) | 0.049 (≈ 0.0887 µM) | 0.049 (≈ 0.0887 µM) | 0.013 (≈ 0.0235 µM) | 6.25 (≈ 11.3 µM) | 3.13 (≈ 5.66 µM) | 0.025 (≈ 0.0452 µM) | 0.049 (≈ 0.0887 µM) | 4 (≈ 0.00724 µM) |
| CO/N=C(\C(=O)N[C@@H]1C(=O)N2C(C(=O)[O-])=C(/C=C/C[N+](C)(CCO)CCO)CS[C@H]12)c1csc(N)n1 [1-d] | 0.049 (≈ 0.0906 µM) | 50 (≈ 92.5 µM) | 0.78 (≈ 1.44 µM) | 0.098 (≈ 0.181 µM) | 0.013 (≈ 0.024 µM) | 0.78 (≈ 1.44 µM) | 0.78 (≈ 1.44 µM) | 0.39 (≈ 0.721 µM) | 0.2 (≈ 0.37 µM) | 0.013 (≈ 0.024 µM) | 6.25 (≈ 11.6 µM) | 0.013 (≈ 0.024 µM) | 0.098 (≈ 0.181 µM) | 0.025 (≈ 0.0462 µM) | 0.013 (≈ 0.024 µM) | 3.13 (≈ 5.79 µM) | 1.56 (≈ 2.89 µM) | 0.025 (≈ 0.0462 µM) | 0.049 (≈ 0.0906 µM) | 4 (≈ 0.0074 µM) |
